Results taken from patent US12070452B2, “Compounds targeting HSP110 protein for cancer treatment” (INSERM (Institut National de la Santé et de la Recherche …, priority 2018, dated 2024).

Columns and labels:
[1] = test system: Bcl2 and Bcl-xL; assay: Western blot of anti-apoptotic proteins Bcl2 and Bcl-xL in DLBCL cell lines; assay type: cell-based, human; settings: TMD8 and HBL1, 76 h in vitro treatment
Description: FIG. 10D: Expression analysis of BcL2 (first line), BcL-XL (second line), and Actin (third line) in TMD8 human B cell lymphoma cell line or in HBL1 human diffuse large B-cell lymphoma cell line, both cell lines being treated with Control (DMSO), compound 33 and compound 52.
It has also been shown that compounds 33 and 52 reduce the expression of the anti-apoptotic proteins Bcl2 and Bcl-xL in these two human diffuse large B-cell lymphoma cell lines, as determined by Western blotting after a 76 h in vitro treatment with compound 33 or 52.

[2] = test system: TMD8 human DLBCL cells; assay: TMD8 DLBCL xenograft in immunodeficient mice, tumor growth; assay type: in vivo; settings: 10 or 20 mg/kg intraperitoneally
Description: FIG. 11A: Tumor volume monitoring of TMD8 human DLBCL cells grown in Immunodeficient mice treated intraperitoneally with the compound 52 (=inhibitor 52) at 10 or 20 mg/kg or with vehicle at the same frequency. (Abscissa: Days from 0 to 25 in day; Ordinate: Tumor volume in mm^3 from 0 to 4000 (scale 1000)).
FIG. 11B: Tumor weight monitoring of TMD8 human DLBCL cells grown in Immunodeficient mice treated intraperitoneally with the compound 52 (=inhibitor 52) at 10 or 20 mg/kg or with vehicle at the same frequency. (Abscissa: Treatments vehicle, 10 mg/kg or 20 mg/kg of compound 52; Ordinate: Tumor weight in g from 0 to 4 g (scale 1)).

[3] = test system: CT26 tumors; assay: Immunofluorescence of P-STAT3 and cleaved caspase-3 in CT26 tumor slides (Balb/c); assay type: in vivo, mouse
Text: FIG. 7A: Immunofluorescence assay of P-STAT3 (Phosphorylated STAT3) in CT26 cells in Balb/c mice tumors treated with VEH (non-relevant compound which is DMSO) (column on the left) or with compound 33 (column on the right). […] Statistical analysis has been performed by ANOVA (*=p=0.0019).
FIG. 7B: Immunofluorescence assay of cleaved caspase-3 (C3C) in CT26 cells in Balb/c mice tumors treated with VEH (column on the left) or with compound 33 (column on the right). […] (Ordinate: Caspase-3 cleaved relative fluorescence in percentage). Statistical analysis has been performed by ANOVA (***=p=0.0003)
Two different colorectal mouse models were used: a syngeneic model for which mouse colon cancer CT-26 cells were injected into Balb/c mice and a NOD/SCID model in which mice were implanted with human colorectal cancer HCT116 cells (FIG. 4 A-B). When the tumor reached a size of −2 mm, mice were treated intraperitoneally with the compound 33 at 5 mg/Kg (BALB/c n=11, NOD SCID n=6) or corn oil 5% DMSO (BALB/c n=10, NOD SCID n=6), every three days until the end of the experiment. The compound 33 was dissolved in DMSO, then diluted 20 times in corn oil (Sigma Aldrich-C8267) and sterilized by filtration with PTFE membrane Millex 0.2 μm (Millipore-SLFG025LS). Tumors were analyzed before reaching 2000 mm3. […]

[4] = test system: tumor-infiltrating macrophages; assay: Macrophage M1/M2-like markers in tumor slides, NOD/SCID HCT116 xenograft model; assay type: in vivo, mouse
Description: Statistical analysis has been performed by ANOVA (***=p=0.0019). FIG. 9B: M2-like markers pSTAT6 and ALOX15 were determined in tumor slides from NOD mice bearing HCT116 xenografts, treated or not with the compound 33 (related to formula (II)). Statistical analysis has been performed by ANOVA (***: p=0.0481). […] Anti-p-STAT1 (1/200; polyclonal, Cell Signaling), anti-SOCS1 (Suppressor of Cytokine Signaling protein 1, 1/200; polyclonal, Santa Cruz), and anti-NOS2 (Nitric Oxide Synthase 2, 1/200; polyclonal Santa Cruz) antibodies were used for M1-like macrophage markers. Anti-pSTAT6 (1/200; polyclonal Santa Cruz), anti-arginase-1 (1/200; polyclonal Santa Cruz) and anti-ALOX15 (Arachidonate 15-LipOXygenase, 1/200; monoclonal Santa Cruz) antibodies were used for M2-like macrophage markers. Primary antibodies were detected using Alexa fluor 488 or Alexa fluor 568-coupled secondary antibodies (1/500, Invitrogen). Nuclei were stained with 10 μl of ProLong Gold Antifade Mountant with DAPI (Molecular Probes). The same protocol was used for NOD/SCID mice except that mice were killed after 16 days after HCT116 cells injection. For the Balb/c model, mice were sacrificed at day 62 (day 1 being the first day of treatment). […] Especially the pSTAT1 relative expression measured is about 1.5 for compound 33 compared to 1.0 for the control, the NOS2 relative expression measured is about 1 for compound 33 compared to 2.5 for the control (FIG. 8A) in CT-26-Balb/c mice model. The pSTAT1 relative expression measured is about 1.5 for compound 33 compared to 0 for the control and the NOS2 relative expression measured is about 20 for compound 33 compared to 2 for the control (FIG. 8B) in NOD/SCID mice model.

[5] = test system: DLBCL cell lines (HBL1, TMD8, U2932); assay: Viability of B-cell lymphoma cell lines, combination with Ibrutinib; assay type: cell-based, human; settings: compound 33 at suboptimal 10 μM, Ibrutinib 0.01-100 nM
Description: FIG. 12: Viability of various B-cell lymphoma cell lines treated with a suboptimal concentration of compound 33 (i) alone or (ii) in combination with increasing concentrations of Ibrutinib.
Groups of bars, from the left to the right of FIG. 12: (i) HBL1 human diffuse large B-cell lymphoma cell line not treated with compound 33 and treated with and increasing concentrations of Ibrutinib, (ii) HBL1 human diffuse large B-cell lymphoma cell line treated with 10 μM of compound 33 and increasing concentrations of Ibrutinib, (iii) TMD8 human B cell lymphoma cell line not treated with compound 33 and treated with and increasing concentrations of Ibrutinib, (iv) TMD8 human B cell lymphoma cell line treated with 10 μM of compound 33 and increasing concentrations of Ibrutinib, (v) U2932 human diffuse large B-cell lymphoma cell line not treated with compound 33 and treated with and increasing concentrations of Ibrutinib, and (vi). U2932 human diffuse large B-cell lymphoma cell line treated with 10 μM of compound 33 and increasing concentrations of Ibrutinib.
In each group of bars, form the left to the right: (i) Control (0 nM), without treatment with Ibrutinib, (ii) Ibrutinib at 0.01 nM, (iii) Ibrutinib at 0.1 nM, (iv) Ibrutinib at 1 nM, (v) Ibrutinib at 10 nM, (vi) Ibrutinib at 100 nM.

[6] = NOD/SCID HCT116 model, control 1

| Compound | expression of anti-apoptotic protein Bcl2 [1] | expression of anti-apoptotic protein Bcl-xL [1] | tumor growth of xenografted DLBCL cell line [2] | P-STAT3 in tumor slides (relative fluorescence) ([3]; CT26 tumors in Balb/c mice, control 100%) | tumor cell apoptosis (cleaved caspase-3 staining) ([3]; CT26 tumors, Balb/c model) | SOCS1 expression (M1 marker) ([4]; NOD/SCID (xenograft) model) | pSTAT1 relative expression (M1 marker) ([4]; NOD/SCID HCT116 model, control 0) | ALOX15 relative expression (M2 marker) [4, 6] | pSTAT6 relative expression (M2 marker) [4, 6] | NOS2 relative expression (M1 marker) ([4]; NOD/SCID HCT116 model, control 2) | effect in combination with Ibrutinib on viability [5] |
| --- | --- | --- | --- | --- | --- | --- | --- | --- | --- | --- | --- |
| COc1cc(-c2cnc(-c3cnc(-c4cc(OC)c(OC)c(OC)c4)c(C)c3)c(/C=C/c3ccccc3)c2)cc(OC)c1OC [compound 52, (E)-5′-Methyl-3-styryl-5,6′-bis(3,4,5-trimethoxyphenyl)-2,3′-bipyridine] | reduce | reduce | reduced the tumor growth | – | – | – | – | – | – | – | – |
| COc1ccc(-c2ncc(-c3ncc(-c4cc(OC)c(OC)c(OC)c4)cc3/C=C/c3ccccc3)cc2C)cc1OC [compound 33, (E)-6′-(3,4-Dimethoxyphenyl)-5′-methyl-3-styryl-5-(3,4,5-trimethoxyphenyl)-2,3′-bipyridine] | reduce | reduce | – | 50% | increase in tumor cell apoptosis | increase | about 1.5 | about 0 | about 0 | about 20 | synergistic effect |
